Results: ChEMBL document CHEMBL1649088, “Structural optimization of azadipeptide nitriles strongly increases association rates and allows the development of selective cathepsin inhibitors” (J Med Chem, 2011)
Activity calls are given as the source filed them. The rule behind the calls is not given here.

Tests used:
Procathepsin L = Procathepsin L (Homo sapiens, UniProt P07711); test: Inhibition of human recombinant cathepsin L after 30 mins by spectrophotometric assay
Cathepsin S = Cathepsin S (Homo sapiens, UniProt P25774); test: Inhibition of human cathepsin S after 30 mins by spectrophotometric assay
Cathepsin K = biological target: T1, Cathepsin K (Homo sapiens, UniProt P43235); test: Inhibition of human recombinant cathepsin K after 30 mins by spectrophotometric assay
T1 sequence (P43235 whole entry): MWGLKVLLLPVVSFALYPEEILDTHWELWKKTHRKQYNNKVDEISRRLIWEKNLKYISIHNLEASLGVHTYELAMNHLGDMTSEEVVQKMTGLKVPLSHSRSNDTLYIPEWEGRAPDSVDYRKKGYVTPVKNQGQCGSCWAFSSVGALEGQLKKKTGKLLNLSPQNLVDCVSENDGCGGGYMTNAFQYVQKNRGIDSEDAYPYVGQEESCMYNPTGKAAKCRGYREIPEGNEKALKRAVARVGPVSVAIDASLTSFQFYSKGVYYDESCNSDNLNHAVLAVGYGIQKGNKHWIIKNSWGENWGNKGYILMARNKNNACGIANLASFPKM

Cathepsin B = Cathepsin B (Homo sapiens, UniProt P07858); test: Inhibition of human recombinant cathepsin B after 30 mins by spectrophotometric assay
Homo sapiens [1] = species on record: Homo sapiens; test: Selectivity ratio, ratio of Ki for human recombinant cathepsin L to Ki for human recombinant cathepsin K
Homo sapiens [2] = species on record: Homo sapiens; test: Selectivity ratio, ratio of Ki for human recombinant cathepsin B to Ki for human recombinant cathepsin K
Homo sapiens [3] = species on record: Homo sapiens; test: Selectivity ratio, ratio of Ki for human cathepsin S to Ki for human recombinant cathepsin K
[4] = biological target: T2, Cathepsin K (Homo sapiens) (UniProt P43235); test: Reversible inhibition of human recombinant cathepsin K at 300 nM preincubated for 30 mins by spectrophotometric assay
T2 sequence (whole entry): T1 sequence (P43235 whole entry)

Sequence of Procathepsin L (P07711 whole entry): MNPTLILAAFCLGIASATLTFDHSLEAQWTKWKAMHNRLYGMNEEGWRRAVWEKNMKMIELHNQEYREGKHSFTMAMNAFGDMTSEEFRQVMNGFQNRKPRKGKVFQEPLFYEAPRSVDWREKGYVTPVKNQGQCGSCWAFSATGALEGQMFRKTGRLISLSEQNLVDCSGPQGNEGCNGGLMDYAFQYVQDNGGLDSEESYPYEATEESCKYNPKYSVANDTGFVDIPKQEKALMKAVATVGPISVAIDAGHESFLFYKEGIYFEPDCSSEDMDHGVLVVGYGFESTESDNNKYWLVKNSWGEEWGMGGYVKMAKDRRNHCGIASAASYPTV
Sequence of Cathepsin S (P25774 whole entry): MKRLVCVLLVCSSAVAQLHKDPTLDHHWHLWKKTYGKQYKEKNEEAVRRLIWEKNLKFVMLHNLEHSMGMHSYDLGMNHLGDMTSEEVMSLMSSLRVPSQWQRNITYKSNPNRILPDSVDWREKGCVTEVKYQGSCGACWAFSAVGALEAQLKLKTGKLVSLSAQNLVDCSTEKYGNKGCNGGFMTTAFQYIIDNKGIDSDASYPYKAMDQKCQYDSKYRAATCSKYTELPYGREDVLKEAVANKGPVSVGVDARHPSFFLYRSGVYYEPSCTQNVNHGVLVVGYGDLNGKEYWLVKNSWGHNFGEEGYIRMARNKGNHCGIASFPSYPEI

Row | Ki (Procathepsin L) | Ki (Cathepsin S) | Ki (Cathepsin K) | Ki (Cathepsin B) | Ratio Ki (Homo sapiens [1]) | Ratio Ki (Homo sapiens [2]) | Ratio Ki (Homo sapiens [3]) | Activity [4] | SMILES
1 | 4.4 nM | 0.32 nM | 0.022 nM | 2.4 nM | – | – | – | – | CC(C)C[C@H](NC(=O)Nc1ccc(-c2noc(-c3cccs3)n2)cc1)C(=O)N(C)N(C)C#N
2 | 0.16 nM | 0.51 nM | 0.14 nM | 0.68 nM | – | – | – | – | CN(C#N)N(C)C(=O)[C@H](Cc1ccccc1)NC(=O)OCc1ccccc1
3 | 2700 nM | 140 nM | 0.63 nM | 510 nM | 4300 | 800 | 200 | Active | CC(C)C[C@@H](C(=O)N(C)N(C)C#N)N(C)C(=O)c1ccc(-c2noc(-c3cccs3)n2)cc1
4 | 2 nM | 0.19 nM | 0.045 nM | 2.4 nM | – | – | – | – | Cc1nc(-c2ccc(NC(=O)N[C@@H](CC(C)C)C(=O)N(C)N(C)C#N)cc2)no1
5 | 0.9 nM | 0.33 nM | 0.064 nM | 0.43 nM | – | – | – | – | CC(C)C[C@H](NC(=O)OCc1ccccc1)C(=O)N(C)N(C)C#N
6 | 0.045 nM | 0.16 nM | 0.017 nM | 1.3 nM | – | – | – | – | CC(C)C[C@H](NC(=O)Nc1ccccc1)C(=O)N(C)N(C)C#N
7 | 860 nM | 800 nM | 260 nM | 840 nM | – | – | – | – | CN(C#N)N(C)C(=O)CNC(=O)OCc1ccccc1
8 | 0.39 nM | 0.2 nM | 0.011 nM | 0.65 nM | – | – | – | – | CC(C)C[C@H](NC(=O)NCc1ccccc1)C(=O)N(C)N(C)C#N
9 | 0.4 nM | 0.2 nM | 0.071 nM | 0.48 nM | – | – | – | – | CN(C#N)N(C)C(=O)[C@H](CC1CCCCC1)NC(=O)OCc1ccccc1

The remaining lines, values behind:

Row | SMILES | Ki (Procathepsin L) | Ki (Cathepsin S) | Ki (Cathepsin K) | Ki (Cathepsin B) | Ratio Ki (Homo sapiens [1]) | Ratio Ki (Homo sapiens [2]) | Ratio Ki (Homo sapiens [3]) | Activity [4]
10 | CC(C)C[C@H](NC(=O)NCc1ccc(-c2noc(-c3cccs3)n2)cc1)C(=O)N(C)N(C)C#N | 1.1 nM | 0.16 nM | 0.072 nM | 1.3 nM | – | – | – | –
11 | CC(C)C[C@H](NC(=O)c1ccc(-c2noc(-c3cccs3)n2)cc1)C(=O)NCC#N | 940 nM | 140 nM | 2.9 nM | > 22000 nM | 300 | – | – | –
12 | CC(C)C[C@H](NC(=O)c1ccc(-c2noc(-c3cccs3)n2)cc1)C(=O)N(C)N(C)C#N | 0.22 nM | 0.15 nM | 0.032 nM | 0.36 nM | – | – | – | –
13 | C[C@H](NC(=O)OCc1ccccc1)C(=O)N(C)N(C)C#N | 480 nM | 9.1 nM | 33 nM | 55 nM | – | – | – | –
14 | CC(C)C[C@@H](C(=O)NCC#N)N(C)C(=O)c1ccc(-c2noc(-c3cccs3)n2)cc1 | > 22000 nM | > 22000 nM | 270 nM | > 22000 nM | – | – | – | –
15 | CC[C@H](C)[C@H](NC(=O)OCc1ccccc1)C(=O)N(C)N(C)C#N | 2.6 nM | 0.83 nM | 0.46 nM | 0.88 nM | – | – | – | –
16 | CN(C#N)N(C)C(=O)[C@H](Cc1ccc(O)cc1)NC(=O)OCc1ccccc1 | 0.36 nM | 0.86 nM | 0.16 nM | 0.38 nM | – | – | – | –
17 | CC(C)C[C@H](NC(=O)Nc1ccc(-c2noc(-c3cccs3)n2)cc1)C(=O)NCC#N | 4700 nM | 180 nM | 34 nM | > 22000 nM | – | – | – | –
18 | CC(C)[C@H](NC(=O)OCc1ccccc1)C(=O)N(C)N(C)C#N | 1.5 nM | 1.5 nM | 0.87 nM | 4.3 nM | – | – | – | –
19 | Cc1nc(-c2ccc(CNC(=O)N[C@@H](CC(C)C)C(=O)N(C)N(C)C#N)cc2)no1 | 1.4 nM | 0.17 nM | 0.11 nM | 2.8 nM | – | – | – | –
